Values of other authors, collected in patent US11980186B2, “Preparation method of eucalyptol emulsion and application thereof in biopesticides” (Jiangnan University, priority 2021, dated 2024).
Converted amounts (≈) assume the structure as drawn.

Test system: B. tabaci
Settings: literature value

## O=C1CCC[C@@H]2[C@H]3CCCN4CCC[C@@H](CN12)[C@@H]34 [matrine]
  LC50 against the B. tabaci: 13.35 µg/mL (≈ 53.8 µM)
